Measured values reported in the supplement of paper PMC11061612.

Assays:
8-MG-BA (Glioblastoma) [1] = test: Bliss excess, mean over the matrix (fraction); higher = more synergy
Method in brief: (§1)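 Cell lines in DMEM/F12 or RPMI with 10% FBS were plated in 1536-well plates, held 24 hours at 37°C, 5% CO2, then given two-drug dose matrices for 72 hours (DMSO typically 0.2%). Viability was read by CellTiter-Glo 2.0 luminescence and scaled as inhibition from 0 (vehicle wells) to 1 (blank wells). Combination Emax is the second-highest inhibition in the matrix; Bliss excess is observed combination effect minus expected EA + EB − EA·EB, EA and EB being single-agent effects.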

[2] = test system: CAL-29 (Bladder Carcinoma); test: as above
Method in brief: as §1

[3] = test system: NCI-H2066 (Squamous Cell Lung Carcinoma); test: as above
Method in brief: as §1

8-MG-BA (Glioblastoma) [4] = test: combination Emax (second highest fraction inhibited in the dose matrix, 72 h); higher = more inhibition; extreme values may be limits of the assay
Method in brief: as §1

ARH-77 (Non-Cancerous) = test: as above
Method in brief: as §1

[5] = test system: BICR22 (Oral Cavity Carcinoma); test: as above
Method in brief: as §1

[6] = test system: CAPAN-2 (Pancreatic Carcinoma); test: as above
Method in brief: as §1

CAS-1 (Glioblastoma) = test: as above
Method in brief: as §1

[7] = test system: COLO-824 (Breast Carcinoma); test: as above
Method in brief: as §1

GI-ME-N (Neuroblastoma) = test: as above
Method in brief: as §1

[8] = test system: JSC-1 (B-Cell Non-Hodgkin's Lymphoma); test: as above
Method in brief: as §1

[9] = test system: KARPAS-422 (B-Cell Non-Hodgkin's Lymphoma); test: as above
Method in brief: as §1

[10] = test system: NCI-H1581 (Non-Small Cell Lung Carcinoma); test: as above
Method in brief: as §1

[11] = test system: NCI-H1650 (Lung Adenocarcinoma); test: as above
Method in brief: as §1

[12] = test system: NCI-H2066 (Squamous Cell Lung Carcinoma); test: as above
Method in brief: as §1

[13] = test system: NCI-H64 (Small Cell Lung Carcinoma); test: as above
Method in brief: as §1

NY (Osteosarcoma) = test: as above
Method in brief: as §1

PA-1 (Ovarian Carcinoma) = test: as above
Method in brief: as §1

[14] = test system: SISO (Cervical Carcinoma); test: as above
Method in brief: as §1

[15] = test system: TT2609-C02 (Thyroid Gland Carcinoma); test: as above
Method in brief: as §1
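Throughout, for Bliss excess, mean over the matrix: after 72 h of two-drug dosing.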

SMILES	Bliss excess (8-MG-BA (Glioblastoma) [1])	Bliss excess [2]	Bliss excess [3]	combination Emax (8-MG-BA (Glioblastoma) [4])	combination Emax (ARH-77 (Non-Cancerous))	combination Emax [5]	combination Emax [6]	combination Emax (CAS-1 (Glioblastoma))	combination Emax [7]	combination Emax (GI-ME-N (Neuroblastoma))	combination Emax [8]	combination Emax [9]	combination Emax [10]	combination Emax [11]	combination Emax [12]	combination Emax [13]	combination Emax (NY (Osteosarcoma))	combination Emax (PA-1 (Ovarian Carcinoma))	combination Emax [14]	combination Emax [15]
CC1(C)CCC(CN2CCN(c3ccc(C(=O)NS(=O)(=O)c4ccc(NCC5CCOCC5)c([N+](=O)[O-])c4)c(Oc4cnc5[nH]ccc5c4)c3)CC2)=C(c2ccc(Cl)cc2)C1 [Venetoclax] + C1CN(CCC1(C(=O)N[C@@H](CCO)C2=CC=C(C=C2)Cl)N)C3=NC=NC4=C3C=CN4 [Capivasertib] (first compound max 1 µM, 7x7, partner max 3 µM)	0.0442	-0.0319	-0.0142	0.26	0.7	0.272	0.154	0.407	0.881	0.24	0.161	0.917	0.0621	0.164	0.424	0.361	0.583	0.636	0.106	0.139
CC1(C)CCC(CN2CCN(c3ccc(C(=O)NS(=O)(=O)c4ccc(NCC5CCOCC5)c([N+](=O)[O-])c4)c(Oc4cnc5[nH]ccc5c4)c3)CC2)=C(c2ccc(Cl)cc2)C1 [Venetoclax] + C[C@@H]1COCCN1C2=NC(=NC(=C2)C3(CC3)[S@](=N)(=O)C)C4=C5C=CNC5=NC=C4 [AZD6738] (first compound max 1 µM, 7x7, partner max 10 µM)	-0.0603	-0.018	-0.0098	0.792	0.961	0.768	0.319	0.623	0.944	0.459	0.882	0.956	0.451	0.402	0.384	0.882	0.708	0.827	0.532	0.317
C[C@@H](c1ccc2nccn2c1)n1nnc2ncc(-c3cnn(C)c3)nc21 [Savolitinib] + Cc1c2c(nn1C)CSCc1cc(n(C)n1)CSc1cc(c3ccccc3c1)OCCCc1c(C(=O)O)n(C)c3c-2c(Cl)ccc13 [AZD5991] (first compound max 1 µM, 7x7, partner max 1 µM)	-0.0303	-0.0474	-0.0455	0.595	0.245	0.269	0.166	0.194	0.356	0.245	1	0.961	0.951	0.132	0.169	0.0956	0.442	0.885	0.0507	0.156
CCN(CCO)CCCOc1ccc2c(Nc3cc(CC(=O)Nc4cccc(F)c4)[nH]n3)ncnc2c1 [AZD2811] + O=C(c1cc(Cc2n[nH]c(=O)c3ccccc23)ccc1F)N1CCN(C(=O)C2CC2)CC1 [Olaparib] (first compound max 1 µM, 7x7, partner max 10 µM)	0.0327	0.0378	-0.022	0.52	0.474	0.362	0.184	0.255	0.797	0.196	0.213	0.375	0.344	0.249	0.214	0.434	0.169	0.545	0.454	0.299
COc1cccc(OCCCN)c1-c1cc(Nc2cnc(C#N)cn2)n[nH]1 [Prexasertib] + CCc1c2c(nc3ccc(O)cc13)-c1cc3c(c(=O)n1C2)COC(=O)[C@]3(O)CC [SN-38] (first compound max 1 µM, 7x7, partner max 0.3 µM)	-0.0166	0.002	0.0285	0.989	1	0.936	0.495	0.834	1	0.529	0.987	1	0.897	0.778	0.5	0.95	0.935	0.91	0.972	0.95
CN(C)CCCOc1ccc(-c2ccc3ncc4c(c3c2)n(C2CCOCC2)c(=O)n4C)cn1 [AZD0156] + C[C@@H]1COCCN1C2=NC(=NC(=C2)C3(CC3)[S@](=N)(=O)C)C4=C5C=CNC5=NC=C4 [AZD6738] (first compound max 1 µM, 7x7, partner max 10 µM)	0.0389	0.0162	-0.0404	0.834	0.975	0.724	0.395	0.582	0.712	0.697	0.916	0.653	0.418	0.376	0.35	0.732	0.555	0.85	0.588	0.144
COc1cccc(OCCCN)c1-c1cc(Nc2cnc(C#N)cn2)n[nH]1 [Prexasertib] + C[C@@H]1COCCN1C2=NC(=NC(=C2)C3(CC3)[S@](=N)(=O)C)C4=C5C=CNC5=NC=C4 [AZD6738] (first compound max 1 µM, 7x7, partner max 10 µM)	-0.0239	-0.0331	-0.0154	0.926	1	0.789	0.513	0.652	0.796	0.563	0.995	0.88	0.566	0.519	0.454	0.835	0.637	0.778	0.798	0.263
CC1(C)CCC(CN2CCN(c3ccc(C(=O)NS(=O)(=O)c4ccc(NCC5CCOCC5)c([N+](=O)[O-])c4)c(Oc4cnc5[nH]ccc5c4)c3)CC2)=C(c2ccc(Cl)cc2)C1 [Venetoclax] + Cn1cnc2c(F)c(Nc3ccc(Br)cc3Cl)c(C(=O)NOCCO)cc21 [Selumetinib] (first compound max 1 µM, 7x7, partner max 3 µM)	-0.0216	-0.0137	-0.0074	0.124	0.369	0.141	0.364	0.158	0.829	0.24	0.271	0.793	0.32	0.0531	0.191	0.239	0.485	0.318	0.196	0.55
Cc1c2c(nn1C)CSCc1cc(n(C)n1)CSc1cc(c3ccccc3c1)OCCCc1c(C(=O)O)n(C)c3c-2c(Cl)ccc13 [AZD5991] + C[C@@H](Nc1cc(F)cc(F)c1)c1cc(C(=O)N(C)C)cc2c(=O)cc(N3CCOCC3)oc12 [AZD8186] (first compound max 1 µM, 7x7, partner max 3 µM)	0.0956	0.0096	-0.0445	0.734	0.928	0.537	0.252	0.467	0.441	0.301	1	0.94	0.991	0.297	0.343	0.406	0.631	0.964	0.123	0.303
CN(C)CCCOc1ccc(-c2ccc3ncc4c(c3c2)n(C2CCOCC2)c(=O)n4C)cn1 [AZD0156] + C=CCn1c(=O)c2cnc(Nc3ccc(N4CCN(C)CC4)cc3)nc2n1-c1cccc(C(C)(C)O)n1 [AZD1775] (first compound max 1 µM, partner max 1 µM)	-0.0587	-0.0301	-0.07	0.74	0.944	0.516	0.39	0.464	0.644	0.321	0.868	0.607	0.331	0.385	0.208	0.832	0.555	0.789	0.566	0.334
CN(CCO)CC[C@H](CSc1ccccc1)Nc1ccc(S(=O)(=O)NC(=O)c2ccc(N3CCC([C@@H](O)c4ccccc4-c4ccc(Cl)cc4)CC3)cc2)cc1S(=O)(=O)C(F)(F)F [AZD4320] + Cn1cnc2c(F)c(Nc3ccc(Br)cc3Cl)c(C(=O)NOCCO)cc21 [Selumetinib] (first compound max 1 µM, 7x7, partner max 3 µM)	0.0614	0.0826	0.0432	0.367	0.896	0.721	0.772	0.575	1	0.345	0.707	0.875	0.4	0.318	0.71	0.988	0.556	0.8	0.304	0.546
CC(=O)c1c(C)c2cnc(Nc3ccc(N4CCNCC4)cn3)nc2n(C2CCCC2)c1=O [Palbociclib] + CC1(C)CCC(CN2CCN(c3ccc(C(=O)NS(=O)(=O)c4ccc(NCC5CCOCC5)c([N+](=O)[O-])c4)c(Oc4cnc5[nH]ccc5c4)c3)CC2)=C(c2ccc(Cl)cc2)C1 [Venetoclax] (first compound max 10 µM, 7x7, partner max 1 µM)	0.0049	-0.0523	-0.027	0.366	0.725	0.209	0.0393	0.274	0.844	0.196	0.506	0.964	0.291	0.131	0.184	0.17	0.0868	0.779	0.0637	0.275
